PubChem BioAssay AID1963856 (Molecular Pharmacology Branch, DTP, NCI, 2024)

Test system: LG0567-F671-PDC KRAS tumor spheroid viability
Experiment: Anticancer human tumor LG0567-F671-PDC patient-derived lung adenocarcinoma cell line growth inhibition [KRAS2]
Details: spheroids with HUVEC and MSC; for IC50: curve of first compound; for viability, T/C: stronger effect = lower value
How it was run: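 Combination screen of spheroid viability in tumor-cell co-cultures with endothelial (HUVEC) and mesenchymal stem cell stroma. Each agent was tested in half-log dilutions, topping at clinical Cmax or at 10 microM without a known Cmax.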

[1] = second compound 0.1 µM, first compound 0.0316 µM
[2] = second compound 0.1 µM, first compound 0.1 µM
[3] = second compound 0.1 µM, first compound 0.316 µM
[4] = second compound 0.1 µM, first compound 1 µM
[5] = second compound 0.1 µM, first compound 3.16 µM
[6] = second compound 0.1 µM, first compound 10 µM
[7] = second compound 0.316 µM, first compound 0.0316 µM
[8] = second compound 0.316 µM, first compound 0.1 µM
[9] = second compound 0.316 µM, first compound 0.316 µM
[10] = second compound 0.316 µM, first compound 1 µM
[11] = second compound 0.316 µM, first compound 3.16 µM
[12] = second compound 0.316 µM, first compound 10 µM
[13] = second compound 1 µM, first compound 0.0316 µM
[14] = second compound 1 µM, first compound 0.1 µM
[15] = second compound 1 µM, first compound 0.316 µM
[16] = second compound 1 µM, first compound 1 µM
[17] = second compound 1 µM, first compound 3.16 µM
[18] = second compound 1 µM, first compound 10 µM
[19] = second compound 3.16 µM, first compound 0.0316 µM
[20] = second compound 3.16 µM, first compound 0.1 µM
[21] = second compound 3.16 µM, first compound 0.316 µM
[22] = second compound 3.16 µM, first compound 1 µM
[23] = second compound 3.16 µM, first compound 3.16 µM
[24] = second compound 3.16 µM, first compound 10 µM
[25] = second compound 10 µM, first compound 0.0316 µM
[26] = second compound 10 µM, first compound 0.1 µM
[27] = second compound 10 µM, first compound 0.316 µM
[28] = second compound 10 µM, first compound 1 µM
[29] = second compound 10 µM, first compound 3.16 µM
[30] = second compound 10 µM, first compound 10 µM
[31] = second compound 0.1 µM, first compound 0.01 µM
[32] = second compound 0.316 µM, first compound 0.01 µM
[33] = second compound 1 µM, first compound 0.01 µM
[34] = second compound 3.16 µM, first compound 0.01 µM
[35] = second compound 10 µM, first compound 0.01 µM
[36] = second compound 0.1 µM, first compound 0.00316 µM
[37] = second compound 0.316 µM, first compound 0.00316 µM
[38] = second compound 1 µM, first compound 0.00316 µM
[39] = second compound 3.16 µM, first compound 0.00316 µM
[40] = second compound 10 µM, first compound 0.00316 µM
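Further: drug exposure lasted seven days after spheroids formed for three days.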
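Wherever viability, T/C is given: 100% = DMSO vehicle control viability.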

Which IC50 (second compound 0.1 µM) does the source give for CC(C)NCC(C(=O)N1CCN(c2ncnc3c2C(C)CC3O)CC1)c1ccc(Cl)cc1 (stereo not given) + CNCc1ccccc1-c1csc(C(C)Nc2nc(C)nc3cc(OC)c(OC)cc23)c1 here?
The IC50 was greater than 10000 nM.

What about the IC50 (second compound 0.316 µM) of the same compound?
Its IC50 is greater than 10000 nM.

And the IC50 (second compound 1 µM)?
The IC50 was 675 nM.

What about the IC50 (second compound 3.16 µM) of the same compound?
Its IC50 is less than 31.6 nM.

What about the IC50 (second compound 10 µM) of the same compound?
The IC50 was less than 31.6 nM.

And the viability, T/C [1]?
Its viability, T/C is 78.9%.

What about the viability, T/C [2] of the same compound?
Its viability, T/C is 72.3%.

What about the viability, T/C [3] of the same compound?
The viability, T/C was 53%.

And the viability, T/C [4]?
The viability, T/C was 62%.

And the viability, T/C [5]?
Its viability, T/C is 70.9%.

And the viability, T/C [6]?
Its viability, T/C is 61.6%.

What about the viability, T/C [7] of the same compound?
Its viability, T/C is 68.2%.

And the viability, T/C [8]?
Its viability, T/C is 54.6%.

What about the viability, T/C [9] of the same compound?
The viability, T/C was 46.7%.

What about the viability, T/C [10] of the same compound?
The viability, T/C was 54.5%.

What about the viability, T/C [11] of the same compound?
Its viability, T/C is 59.1%.

And the viability, T/C [12]?
Its viability, T/C is 54.6%.

And the viability, T/C [13]?
The viability, T/C was 60.4%.

And the viability, T/C [14]?
Its viability, T/C is 63.5%.

And the viability, T/C [15]?
The viability, T/C was 52.3%.

What about the viability, T/C [16] of the same compound?
The viability, T/C was 42.8%.

What about the viability, T/C [17] of the same compound?
The viability, T/C was 48.3%.

What about the viability, T/C [18] of the same compound?
Its viability, T/C is 42.2%.

And the viability, T/C [19]?
The viability, T/C was 0.25%.

What about the viability, T/C [20] of the same compound?
Its viability, T/C is 0.18%.

What about the viability, T/C [21] of the same compound?
The viability, T/C was 0.11%.

And the viability, T/C [22]?
Its viability, T/C is 1.4%.

What about the viability, T/C [23] of the same compound?
Its viability, T/C is 0.12%.

What about the viability, T/C [24] of the same compound?
Its viability, T/C is 0.97%.

And the viability, T/C [25]?
The viability, T/C was 0.84%.

What about the viability, T/C [26] of the same compound?
Its viability, T/C is 0.44%.

What about the viability, T/C [27] of the same compound?
Its viability, T/C is 0.13%.

And the viability, T/C [28]?
The viability, T/C was 0.12%.

What about the viability, T/C [29] of the same compound?
The viability, T/C was 2.26%.

And the viability, T/C [30]?
Its viability, T/C is 0.6%.

Which results are given for CC1COCCN1c1cc(-c2ccnn2C)c2ccnc(-c3ccn[nH]3)c2n1 (stereo not given) + CNCc1ccccc1-c1csc(C(C)Nc2nc(C)nc3cc(OC)c(OC)cc23)c1?
IC50 (second compound 0.1 µM): > 3160 nM; IC50 (second compound 0.316 µM): 372 nM; IC50 (second compound 1 µM): 41.4 nM; IC50 (second compound 3.16 µM): 160 nM; IC50 (second compound 10 µM): < 10 nM; viability, T/C [31]: 87.1%; viability, T/C [1]: 74.4%; viability, T/C [2]: 60.2%; viability, T/C [3]: 58.9%; viability, T/C [4]: 48.6%; viability, T/C [5]: 54%; viability, T/C [32]: 85.9%; viability, T/C [7]: 77.7%; viability, T/C [8]: 60.6%; viability, T/C [9]: 50.6%; viability, T/C [10]: 46%; viability, T/C [11]: 49.2%; viability, T/C [33]: 68%; viability, T/C [13]: 50.7%; viability, T/C [14]: 42.6%; viability, T/C [15]: 41.4%; viability, T/C [16]: 34.7%; viability, T/C [17]: 33.4%; viability, T/C [34]: 65.6%; viability, T/C [19]: 58.5%; viability, T/C [20]: 61.6%; viability, T/C [21]: 29.8%; viability, T/C [22]: 33.2%; viability, T/C [23]: 36.2%; viability, T/C [35]: 0.18%; viability, T/C [25]: 0.17%; viability, T/C [26]: 0.15%; viability, T/C [27]: 0.17%; viability, T/C [28]: 0.74%; viability, T/C [29]: 0.24%

Which results are given for CCN1CCN(Cc2ccc(Nc3ncc(F)c(-c4cc(F)c5nc(C)n(C(C)C)c5c4)n3)nc2)CC1 + CNCc1ccccc1-c1csc(C(C)Nc2nc(C)nc3cc(OC)c(OC)cc23)c1?
IC50 (second compound 0.1 µM): 493 nM; IC50 (second compound 0.316 µM): 68.2 nM; IC50 (second compound 1 µM): 6.43 nM; IC50 (second compound 3.16 µM): 13.7 nM; IC50 (second compound 10 µM): < 3.16 nM; viability, T/C [36]: 78%; viability, T/C [31]: 76.3%; viability, T/C [1]: 65%; viability, T/C [2]: 62.6%; viability, T/C [3]: 50.1%; viability, T/C [4]: 47.3%; viability, T/C [37]: 77.2%; viability, T/C [32]: 60.5%; viability, T/C [7]: 51.1%; viability, T/C [8]: 54.8%; viability, T/C [9]: 43.8%; viability, T/C [10]: 42%; viability, T/C [38]: 52%; viability, T/C [33]: 50.5%; viability, T/C [13]: 44.3%; viability, T/C [14]: 37.8%; viability, T/C [15]: 39.9%; viability, T/C [16]: 33.9%; viability, T/C [39]: 60.6%; viability, T/C [34]: 74.2%; viability, T/C [19]: 0.63%; viability, T/C [20]: 11.6%; viability, T/C [21]: 3.01%; viability, T/C [22]: 0.17%; viability, T/C [40]: 0.18%; viability, T/C [35]: 0.15%; viability, T/C [25]: 0.13%; viability, T/C [26]: 0.12%; viability, T/C [27]: 0.13%; viability, T/C [28]: 0.18%

Which results are given for CCNC(=O)CC1N=C(c2ccc(Cl)cc2)c2cc(OC)ccc2-n2c(C)nnc21 (stereo not given) + CNCc1ccccc1-c1csc(C(C)Nc2nc(C)nc3cc(OC)c(OC)cc23)c1?
IC50 (second compound 0.1 µM): 1010 nM; IC50 (second compound 0.316 µM): 602 nM; IC50 (second compound 1 µM): 362 nM; IC50 (second compound 3.16 µM): 127 nM; IC50 (second compound 10 µM): < 31.6 nM; viability, T/C [1]: 96.7%; viability, T/C [2]: 92.1%; viability, T/C [3]: 66.1%; viability, T/C [4]: 49.9%; viability, T/C [5]: 42.1%; viability, T/C [6]: 30%; viability, T/C [7]: 85.4%; viability, T/C [8]: 87.6%; viability, T/C [9]: 64.1%; viability, T/C [10]: 39.2%; viability, T/C [11]: 32.7%; viability, T/C [12]: 30.6%; viability, T/C [13]: 70.2%; viability, T/C [14]: 67.6%; viability, T/C [15]: 49%; viability, T/C [16]: 39%; viability, T/C [17]: 29.7%; viability, T/C [18]: 25.5%; viability, T/C [19]: 72.3%; viability, T/C [20]: 62.5%; viability, T/C [21]: 1.46%; viability, T/C [22]: 0.1%; viability, T/C [23]: 2.03%; viability, T/C [24]: 1.27%; viability, T/C [25]: 0.18%; viability, T/C [26]: 0.15%; viability, T/C [27]: 0.22%; viability, T/C [28]: 0.09%; viability, T/C [29]: 0.09%; viability, T/C [30]: 0.15%

What does the source list for Cn1ncnc1[C@H]1c2n[nH]c(=O)c3cc(F)cc(c23)N[C@@H]1c1ccc(F)cc1 + CNCc1ccccc1-c1csc(C(C)Nc2nc(C)nc3cc(OC)c(OC)cc23)c1?
IC50 (second compound 0.1 µM): > 100 nM; IC50 (second compound 0.316 µM): > 100 nM; IC50 (second compound 1 µM): 13.1 nM; IC50 (second compound 3.16 µM): < 0.316 nM; IC50 (second compound 10 µM): < 0.316 nM; viability, T/C (second compound 0.1 µM, first compound 0.000316 µM): 79.2%; viability, T/C (second compound 0.1 µM, first compound 0.001 µM): 82%; viability, T/C [36]: 73.4%; viability, T/C [31]: 70%; viability, T/C [1]: 71.4%; viability, T/C [2]: 74.5%; viability, T/C (second compound 0.316 µM, first compound 0.000316 µM): 64.8%; viability, T/C (second compound 0.316 µM, first compound 0.001 µM): 64.9%; viability, T/C [37]: 61.1%; viability, T/C [32]: 57.6%; viability, T/C [7]: 58%; viability, T/C [8]: 60.6%; viability, T/C (second compound 1 µM, first compound 0.000316 µM): 46.2%; viability, T/C (second compound 1 µM, first compound 0.001 µM): 54.4%; viability, T/C [38]: 53.7%; viability, T/C [33]: 55.8%; viability, T/C [13]: 42.2%; viability, T/C [14]: 46.1%; viability, T/C (second compound 3.16 µM, first compound 0.000316 µM): 0.22%; viability, T/C (second compound 3.16 µM, first compound 0.001 µM): 0.9%; viability, T/C [39]: 0.17%; viability, T/C [34]: 0.13%; viability, T/C [19]: 0.2%; viability, T/C [20]: 0.36%; viability, T/C (second compound 10 µM, first compound 0.000316 µM): 0.39%; viability, T/C (second compound 10 µM, first compound 0.001 µM): 0.63%; viability, T/C [40]: 0.39%; viability, T/C [35]: 0.11%; viability, T/C [25]: 1.32%; viability, T/C [26]: 0.63%
